Experimental data as given in ChEMBL document CHEMBL1777682, “NMR evaluation of interactions between substituted-indole and PDZ1 domain of PSD-95” (Bioorg Med Chem Lett, 2011).
Calls of active or inactive are those of the source. The calls are words filed in the database; no cut-off is given here.

Molecular target: Disks large homolog 4 (Homo sapiens) (UniProt P78352)
Test: Binding affinity to recombinant 15N-labelled PSD95-PDZ1 domain expressed in Escherichia coli BL21 assessed as chemical shift perturbation by NMR spectra analysis

Chain of Disks large homolog 4 (Homo sapiens) (P78352 whole entry, looked up, the tested form may be a part): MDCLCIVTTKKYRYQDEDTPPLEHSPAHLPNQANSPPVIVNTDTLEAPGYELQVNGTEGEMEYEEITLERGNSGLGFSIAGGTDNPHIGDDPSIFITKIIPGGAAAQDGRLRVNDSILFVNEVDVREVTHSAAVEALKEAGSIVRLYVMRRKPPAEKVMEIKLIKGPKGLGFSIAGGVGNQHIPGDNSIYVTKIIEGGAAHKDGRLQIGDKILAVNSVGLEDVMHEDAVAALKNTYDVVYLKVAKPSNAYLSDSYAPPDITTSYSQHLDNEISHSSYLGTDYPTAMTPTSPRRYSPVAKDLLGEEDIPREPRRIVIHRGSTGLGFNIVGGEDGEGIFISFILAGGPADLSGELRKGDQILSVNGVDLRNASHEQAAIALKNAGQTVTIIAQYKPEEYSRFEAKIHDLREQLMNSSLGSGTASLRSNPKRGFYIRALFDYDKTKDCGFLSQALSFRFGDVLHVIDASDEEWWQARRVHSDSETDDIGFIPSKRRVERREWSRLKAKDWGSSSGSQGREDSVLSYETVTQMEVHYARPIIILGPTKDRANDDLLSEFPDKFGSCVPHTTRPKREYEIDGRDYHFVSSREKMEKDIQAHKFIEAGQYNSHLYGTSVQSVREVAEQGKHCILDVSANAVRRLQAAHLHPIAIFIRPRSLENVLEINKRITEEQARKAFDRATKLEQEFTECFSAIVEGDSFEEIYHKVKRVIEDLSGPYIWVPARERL

SMILES | Activity
Cc1cc2c(C)c(C(=O)O)n(C)c2cc1C(=O)O | inactive
Cc1cc2cc(C(=O)O)[nH]c2cc1C(=O)O | inactive
Cc1c(C(=O)O)[nH]c2ccc(C(=O)O)cc12 | Active
CCOC(=O)c1ccc2[nH]c(C(=O)O)c(C)c2c1 | inactive

Second part, the molecule after the results:

Activity | SMILES
Active | Cc1cc2c(C)c(C(=O)O)[nH]c2cc1C(=O)O
inactive | COC(=O)c1cc2c(C)c(C(=O)O)[nH]c2cc1C
inactive | COC(=O)c1cc2[nH]c(C(=O)O)c(C)c2cc1C
Active | Cc1cc2[nH]c(C(=O)O)c(C)c2cc1C(=O)O
